# Experimental data: patent US12029739B2, “SHP2 inhibitor and use thereof” (KANAPH THERAPEUTICS INC., priority 2021, dated 2024)
# Where two headings read alike, the source gives them in different places.
# How the values were obtained:
# [1] = test system: phospho-ERK in MIA PaCa2 or H358 cells; assay: Phospho-ERK assay (AlphaLisa); format: cell-based; settings: MIA PaCa2 or H358 cells, compound incubated 1.5 hours, read-out: IC50 (p-ERK)
# SHP2 (full length) = biological target: T1, SHP2 (full length) (Homo sapiens, UniProt Q06124); assay: Phosphatase assay (PTPase assay) with DiFMUP substrate; format: biochemical; settings: SHP2 activated with SHP2 activating peptide; DiFMUP 80 μM, 2 hours; fluorescence; read-out: IC50 (PTPase aS say)
# T1 construct: SHP2 (full length, diluted to 100 pM final concentration in reaction buffer, BPS bioscience, US); purchased BPS bioscience, US
# T1 sequence (Q06124 1-593): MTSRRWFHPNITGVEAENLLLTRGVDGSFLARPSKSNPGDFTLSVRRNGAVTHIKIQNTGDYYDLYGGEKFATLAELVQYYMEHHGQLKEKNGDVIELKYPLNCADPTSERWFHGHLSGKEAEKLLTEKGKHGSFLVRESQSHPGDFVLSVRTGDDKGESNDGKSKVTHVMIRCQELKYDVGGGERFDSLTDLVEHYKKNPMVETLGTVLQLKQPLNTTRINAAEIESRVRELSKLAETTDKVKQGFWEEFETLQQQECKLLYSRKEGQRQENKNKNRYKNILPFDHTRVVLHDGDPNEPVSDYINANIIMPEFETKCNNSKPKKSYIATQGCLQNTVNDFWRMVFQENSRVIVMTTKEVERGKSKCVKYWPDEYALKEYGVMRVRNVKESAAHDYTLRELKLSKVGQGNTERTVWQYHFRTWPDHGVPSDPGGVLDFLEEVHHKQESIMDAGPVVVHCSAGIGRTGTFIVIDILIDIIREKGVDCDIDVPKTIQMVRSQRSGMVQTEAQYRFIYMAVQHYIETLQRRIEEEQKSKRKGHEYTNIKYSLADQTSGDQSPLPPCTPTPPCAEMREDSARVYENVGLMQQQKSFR
Structure (SMILES),IC50 ([1]; 1.5 h) [µM],IC50 (SHP2 (full length)) [µM],IC50 [1] [µM]
"C[C@@H]1OCC2(CCN(c3cnc(Sc4ccc5ncn(CCN(C)C)c(=O)c5c4Cl)cn3)CC2)[C@@H]1N [Example 67, 6-((5-((3S,4S)-4-amino-3-methyl-2-oxa-8-azaspiro[4.5]decan-8-yl)pyrazin-2-yl)thio)-5-chloro-3-(2-(dimethylamino)ethyl)quinazolin-4(3H)-one]",0.045 to 1.5,0.003 to 0.1,–
"C[C@@H]1OCC2(CCN(c3cnc(Sc4ccc5ncn(CCCN(C)C)c(=O)c5c4Cl)cn3)CC2)[C@@H]1N [Example 68, 6-((5-((3S,4S)-4-amino-3-methyl-2-oxa-8-azaspiro[4.5]decan-8-yl)pyrazin-2-yl)thio)-5-chloro-3-(3-(dimethylamino)propyl)quinazolin-4(3H)-one]",0.045 to 1.5,0.003 to 0.1,–
"Cc1ccc(Cn2cnc3ccc(Sc4cnc(N5CCC6(CC5)CO[C@@H](C)[C@H]6N)cn4)c(Cl)c3c2=O)c(F)c1 [Example 69, 6-((5-((3S,4S)-4-amino-3-methyl-2-oxa-8-azaspiro[4.5]decan-8-yl)pyrazin-2-yl)thio)-5-chloro-3-(2-fluoro-4-methylbenzyl)quinazolin-4(3H)-one]",< 0.045,< 0.003,–
"COc1cccc(Cn2cnc3ccc(Sc4cnc(N5CCC6(CC5)CO[C@@H](C)[C@H]6N)cn4)c(Cl)c3c2=O)c1F [Example 70, 6-((5-((3S,4S)-4-amino-3-methyl-2-oxa-8-azaspiro[4.5]decan-8-yl)pyrazin-2-yl)thio)-5-chloro-3-(2-fluoro-3-methoxybenzyl)quinazolin-4(3H)-one]",< 0.045,< 0.003,–
"C[C@@H]1OCC2(CCN(c3cnc(Sc4ccc5ncn(Cc6ccnc(C#N)c6)c(=O)c5c4Cl)cn3)CC2)[C@@H]1N [Example 71, 4-((6-((5-((3S,4S)-4-amino-3-methyl-2-oxa-8-azaspiro[4.5]decan-8-yl)pyrazin-2-yl)thio)-5-chloro-4-oxoquinazolin-3(4H)-yl)methyl)picolinonitrile]",< 0.045,< 0.003,–
"COc1ccc(Cn2cnc3ccc(Sc4cnc(N5CCC6(CC5)CO[C@@H](C)[C@H]6N)cn4)c(Cl)c3c2=O)c(F)c1 [Example 72, 6-((5-((3S,4S)-4-amino-3-methyl-2-oxa-8-azaspiro[4.5]decan-8-yl)pyrazin-2-yl)thio)-5-chloro-3-(2-fluoro-4-methoxybenzyl)quinazolin-4(3H)-one]",< 0.045,< 0.003,–
"COc1ccc(Cn2cnc3ccc(Sc4cnc(N5CCC6(CC5)CO[C@@H](C)[C@H]6N)cn4)c(Cl)c3c2=O)cc1F [Example 73, 6-((5-((3S,4S)-4-amino-3-methyl-2-oxa-8-azaspiro[4.5]decan-8-yl)pyrazin-2-yl)thio)-5-chloro-3-(3-fluoro-4-methoxybenzyl)quinazolin-4(3H)-one]",< 0.045,< 0.003,–
"C[C@@H]1OCC2(CCN(c3cnc(Sc4ccc5ncn(CC6CCCN6C)c(=O)c5c4Cl)cn3)CC2)[C@@H]1N (stereo partly drawn) [Example 74, 6-((5-((3S,4S)-4-amino-3-methyl-2-oxa-8-azaspiro[4.5]decan-8-yl)pyrazin-2-yl)thio)-5-chloro-3-((l-methylpyrrolidin-2-yl)methyl)quinazolin-4(3H)-one]",0.045 to 1.5,0.003 to 0.1,–
"C[C@@H]1OCC2(CCN(c3cnc(Sc4ccc5ncn(CC(F)(F)F)c(=O)c5c4Cl)cn3)CC2)[C@@H]1N [Example 75, 6-((5-((3S,4S)-4-amino-3-methyl-2-oxa-8-azaspiro[4.5]decan-8-yl)pyrazin-2-yl)thio)-5-chloro-3-(2,2,2-trifluoroethyl)quinazolin-4(3H)-one]",0.045 to 1.5,0.003 to 0.1,–
"C[C@@H]1OCC2(CCN(c3cnc(Sc4ccc5ncn(CC(O)CF)c(=O)c5c4Cl)cn3)CC2)[C@@H]1N (stereo partly drawn) [Example 76, 6-((5-((3S,4S)-4-amino-3-methyl-2-oxa-8-azaspiro[4.5]decan-8-yl)pyrazin-2-yl)thio)-5-chloro-3-(3-fluoro-2-hydroxypropyl)quinazolin-4(3H)-one]",0.045 to 1.5,0.003 to 0.1,–
"C[C@@H]1OCC2(CCN(c3cnc(Sc4ccc5ncn(CCCF)c(=O)c5c4Cl)cn3)CC2)[C@@H]1N [Example 77, 6-((5-((3S,4S)-4-amino-3-methyl-2-oxa-8-azaspiro[4.5]decan-8-yl)pyrazin-2-yl)thio)-5-chloro-3-(3-fluoropropyl)quinazolin-4(3H)-one]",< 0.045,< 0.003,–
"C[C@@H]1OCC2(CCN(c3cnc(Sc4ccc5ncn(CN6CCOCC6)c(=O)c5c4Cl)cn3)CC2)[C@@H]1N [Example 78, 6-((5-((3S,4S)-4-amino-3-methyl-2-oxa-8-azaspiro[4.5]decan-8-yl)pyrazin-2-yl)thio)-5-chloro-3-(morpholinomethyl)quinazolin-4(3H)-one]",< 0.045,< 0.003,–
"C[C@@H]1OCC2(CCN(c3cnc(Sc4ccc5ncn(CC6(F)CCOCC6)c(=O)c5c4Cl)cn3)CC2)[C@@H]1N [Example 79, 6-((5-((3S,4S)-4-amino-3-methyl-2-oxa-8-azaspiro[4.5]decan-8-yl)pyrazin-2-yl)thio)-5-chloro-3-((4-fluorotetrahydro-2H-pyran-4-yl)methyl)quinazolin-4(3H)-one]",< 0.045,< 0.003,–
"C[C@@H]1OCC2(CCN(c3cnc(Sc4ccc5ncn(CC6(F)COC6)c(=O)c5c4Cl)cn3)CC2)[C@@H]1N [Example 80, 6-((5-((3S,4S)-4-amino-3-methyl-2-oxa-8-azaspiro[4.5]decan-8-yl)pyrazin-2-yl)thio)-5-chloro-3-((3-fluorooxetan-3-yl)methyl)quinazolin-4(3H)-one]",< 0.045,< 0.003,–
"C[C@@H]1OCC2(CCN(c3cnc(Sc4ccc5ncn(CC(C)(C)O)c(=O)c5c4Cl)cn3)CC2)[C@@H]1N [Example 81, 6-((5-((3S,4S)-4-amino-3-methyl-2-oxa-8-azaspiro[4.5]decan-8-yl)pyrazin-2-yl)thio)-5-chloro-3-(2-hydroxy-2-methylpropyl)quinazolin-4(3H)-one]",< 0.045,< 0.003,–
"C[C@@H]1OCC2(CCN(c3cnc(Sc4ccc5ncn(CCS(C)(=O)=O)c(=O)c5c4Cl)cn3)CC2)[C@@H]1N [Example 82, 6-((5-((3S,4S)-4-amino-3-methyl-2-oxa-8-azaspiro[4.5]decan-8-yl)pyrazin-2-yl)thio)-5-chloro-3-(2-(methylsulfonyl)ethyl)quinazolin-4(3H)-one]",< 0.045,< 0.003,–
"C[C@@H]1OCC2(CCN(c3cnc(Sc4ccc5ncn(CC6(O)CCOCC6)c(=O)c5c4Cl)cn3)CC2)[C@@H]1N [Example 83, 6-((5-((3S,4S)-4-amino-3-methyl-2-oxa-8-azaspiro[4.5]decan-8-yl)pyrazin-2-yl)thio)-5-chloro-3-((4-hydroxytetrahydro-2H-pyran-4-yl)methyl)quinazolin-4(3H)-one]",< 0.045,< 0.003,–
"COCCn1cnc2ccc(Sc3cnc(N4CCC5(CC4)Cc4ccccc4[C@H]5N)cn3)c(Cl)c2c1=O [Example 84, (S)-6-((5-(1-amino-1,3-dihydrospiro(indene-2,4′-piperidin]-1′-yl)pyrazin-2-yl)thio)-5-chloro-3-(2-methoxyethyl)quinazolin-4(3H)-one]",–,< 0.003,< 0.045
"C[C@@H]1OCC2(CCN(c3cnc(Sc4ccc5c(c4Cl)C(=O)N(Cc4ccccc4)CC5)cn3)CC2)[C@@H]1N [Example 85, 7-((5-((3S,4S)-4-amino-3-methyl-2-oxa-8-azaspiro[4.5]decan-8-yl)pyrazin-2-yl)thio)-2-benzyl-8-chloro-3,4-dihydroisoquinolin-1(2H)-one]",> 1.5,0.003 to 0.1,–
"C[C@@H]1OCC2(CCN(c3cnc(Sc4ccnc(C(=O)NCc5cccnc5)c4Cl)cn3)CC2)[C@@H]1N [Example 87, 4-((5-((3S,4S)-4-amino-3-methyl-2-oxa-8-azaspiro[4.5]decan-8-yl)pyrazin-2-yl)thio)-3-chloro-N-(pyridin-3-ylmethyl)picolinamide]",0.045 to 1.5,0.003 to 0.1,–
"C[C@@H]1OCC2(CCN(c3cnc(Sc4ccc5ncn(Cc6ccccn6)c(=O)c5c4Cl)cn3)CC2)[C@@H]1N [Example 88, 6-((5-((3S,4S)-4-amino-3-methyl-2-oxa-8-azaspiro[4.5]decan-8-yl)pyrazin-2-yl)thio)-5-chloro-3-(pyridin-2-ylmethyl)quinazolin-4(3H)-one]",< 0.045,< 0.003,–
C[C@@H]1OCC2(CCN(c3cnc(Sc4ccc5ncn(CCN6CCCC6)c(=O)c5c4Cl)cn3)CC2)[C@@H]1N [Example 89],0.045 to 1.5,0.003 to 0.1,–
"C[C@@H]1OCC2(CCN(c3cnc(Sc4ccc5ncn(CC(=O)c6cccnc6)c(=O)c5c4Cl)cn3)CC2)[C@@H]1N [Example 90, 6-((5-((3S,4S)-4-amino-3-methyl-2-oxa-8-azaspiro[4.5]decan-8-yl)pyrazin-2-yl)thio)-5-chloro-3-(2-oxo-2-(pyridin-3-yl]ethyl)quinazolin-4(3H)-one]",< 0.045,< 0.003,–
